Values quoted from earlier work in patent publication US20240374543A1, “PHARMACEUTICAL COMPOSITIONS” (priority 2021, published 2024).

Settings: determined by the FDA

N-Nitrosodimethylamine [NDMA]
acceptable daily intake limit of NDMA: 96 nanogram per day
